Measurements published in paper PMC10486429, “Investigations Using Albumin Binders to Modify the Tissue Distribution Profile of Radiopharmaceuticals Exemplified with Folate Radioconjugates” (Cancers, 2023).

Legend:
[1] = molecular target: T1, mouse serum albumin (MSA) in mouse plasma (Mus musculus, UniProt P07724); test: Ultrafiltration albumin-binding assay of 177Lu-RedFols, mouse plasma; conditions: for Relative albumin-binding affinity: mouse blood plasma, inverse B50 ratio, normalized to the respective (6R or 6S) RedFol-1, set as 1.0; for Albumin-bound fraction: undiluted mouse blood plasma
T1 construct: tissue Rockland Immunochemicals, Inc. Lot No. 32321; host or cells: mouse blood plasma, undiluted and diluted in PBS
T1 sequence (P07724 25-608): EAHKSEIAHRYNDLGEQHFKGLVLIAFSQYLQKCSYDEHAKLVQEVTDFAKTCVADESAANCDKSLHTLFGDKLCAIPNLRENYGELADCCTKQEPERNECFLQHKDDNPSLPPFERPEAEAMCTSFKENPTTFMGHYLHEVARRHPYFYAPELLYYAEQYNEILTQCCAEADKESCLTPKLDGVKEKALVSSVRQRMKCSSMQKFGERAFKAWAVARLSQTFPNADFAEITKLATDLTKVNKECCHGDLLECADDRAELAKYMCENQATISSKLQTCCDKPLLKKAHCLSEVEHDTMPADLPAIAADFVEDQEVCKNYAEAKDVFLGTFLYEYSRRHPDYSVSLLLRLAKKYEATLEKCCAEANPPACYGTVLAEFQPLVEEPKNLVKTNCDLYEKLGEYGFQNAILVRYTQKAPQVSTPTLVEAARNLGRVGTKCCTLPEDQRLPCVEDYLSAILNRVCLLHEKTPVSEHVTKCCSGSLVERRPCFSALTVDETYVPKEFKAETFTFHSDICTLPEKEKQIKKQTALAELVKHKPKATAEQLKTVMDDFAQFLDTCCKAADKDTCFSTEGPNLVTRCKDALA
Description: S11. Relative Albumin-Binding Properties of 177Lu-RedFols
human blood plasma was determined and compared.
Switzerland; HSA: ⁓800 µM), respectively. An ultrafiltration method was applied accord-
ples at 37 °C for 30 min.
unbound) fractions of each sample. The inserts of the filter devices were inverted and
were presented as average of 3 independent experiments.

[2] = Radiolytic stability of 177Lu-DOTA-ALBs in PBS (HPLC); type: physicochemical; conditions: room temperature, 100 MBq/500 µL PBS
Description: The radiolabeling of DOTA-ALBs was carried out under standard labeling conditions at pH 4.5. The ligands (10−100 μM) were mixed with lutetium-177 (no-carrier added [^177Lu]LuCl3; in 0.04 M HCl; ITM GmbH Medical Isotopes, Munich, Germany) to reach molar activities of 25–50 MBq/nmol (Supplementary Materials Section S2). An analytical HPLC system equipped with a C18 column and a radioactivity detector was used for quality control of the radiolabeled DOTA-ALBs (Supplementary Materials Section S2). The ^177Lu-DOTA-ALBs were used for preclinical investigations without separation of the labeled from the unlabeled fraction. The radiolytic stability of the ^177Lu-DOTA-ALBs (50 MBq/nmol) diluted in phosphate-buffered saline (PBS; 100 MBq/500 μL) was assessed in vitro in the absence and presence of L-ascorbic acid (Supplementary Materials Section S3). The n-octanol/PBS distribution coefficients (logD values) were determined using a shake-flask method according to an established protocol (Supplementary Materials Section S4). The logD values were analyzed using a one-way ANOVA with Tukey’s multiple comparisons post-test using GraphPad Prism software (version 8). A p-value of <0.05 was considered a statistically significant difference. […]
S2. Radiolabeling of DOTA-ALBs with Lutetium-177
Purpose: The DOTA-ALBs were labeled with lutetium-177 for subsequent in vitro and […]
Methods: The DOTA-ALBs were dissolved in Milli-Q water at a concentration of 1 mM. Radiolabeling was performed by incubation of the respective DOTA-ALBs with lutetium-177 (no-carrier-added, in 0.04 M HCl; ITM Medical Isotopes GmbH, Munich, Germany) at 95 °C for 10 min in a 1:5 (v/v) mixture of sodium acetate (0.5 M) and HCl (0.05 M) at pH ~4.5 as previously reported. Quality control was performed by reversed-phase HPLC using an aliquot of the radiolabeled DOTA-ALBs (⁓1.5 MBq) diluted in Milli-Q water containing penta-sodium diethylenetriamine pentaacetic acid (Na5-DTPA; 50 µM). The HPLC system (Merck Hitachi LaChrom HPLC) was equipped with a D-7000 interface, a radioactivity detector (LB 508, Berthold Technologies GmbH), a L-6200A pump and a reversed-phase C18 column (XterraTM, 5 µm, 4.6×150 mm, Waters, USA). A linear gradient of 0.1% TFA in Milli-Q water (95–20%) and MeCN (5–80%) over 15 min was used as a mobile phase at a 1 mL/min flow rate. […]
to 50 MBq/nmol. The 177Lu-DOTA-ALBs were used without further purification for their in vitro and in vivo evaluation.
S3. Radiolytic Stability of 177Lu-DOTA-ALBs
Purpose: The stability of each 177Lu-labeled DOTA-ALB was assessed at a high activ-ity concentration to assess potential radiolytic degradation in the absence and presence of […]
Methods: After quality control of the labeled DOTA-ALBs using HPLC (t0), the radio-labeled DOTA-ALBs (50 MBq/nmol) were diluted in PBS pH 7.4 to obtain an activity con-centration of 100 MBq/500 µL. The samples were incubated at room temperature in the absence or presence of L-ascorbic acid (3 mg). Sodium acetate solution (0.5 M, pH 8.0, 150 µL) was added to the samples containing L-ascorbic acid in order to adjust the pH value to ⁓6.5. The integrity of the radiolabeled DOTA-ALBs was assessed after a 4 h- and 24 h-incubation period using HPLC as described above (Supplementary Material, Section S2). The HPLC chromatograms were analyzed by determination of the peak area of the radio-labeled DOTA-ALBs, the released lutetium-177 as well as potential degradation products of unknown structure. The quantity of the intact product was expressed as per-centage of the sum of integrated peak areas of the entire chromatogram and set in relation to the original value determined at t0 (radiochemical purity ≥95% set as 100%).
Results: The results are reported in the main article and presented together with the retention times of the product peak in Table S2.
Table S2. Radiolytic stability of 177Lu-DOTA-ALBs after incubation in the absence or presence of L-ascorbic acid at room temperature (average of n=2 individually performed experiments). […]

Row | SMILES | Relative albumin-binding affinity [1] | Albumin-bound fraction [1] [%] | Intact radioligand ([2]; with L-ascorbic acid, 4 h) [%] | Intact radioligand ([2]; with L-ascorbic acid, 24 h) [%] | Intact radioligand ([2]; without L-ascorbic acid, 4 h) [%] | Intact radioligand ([2]; without L-ascorbic acid, 24 h) [%]
1 | CN1c2c(nc(N)[nH]c2=O)NC[C@H]1CNc1ccc(C(=O)N[C@@H](CCC(=O)N[C@@H](CCCCNC(=O)CN2CCN(CC(=O)O)CCN(CC(=O)O)CCN(CC(=O)O)CC2)C(=O)N[C@@H](CCCCNC(=O)c2ccc(CNC(=O)CCCc3ccc(I)cc3)cc2)C(=O)O)C(=O)O)cc1 [[^177Lu]Lu-6R-RedFol-3, metal not drawn] | 8.4 | 97 | – | – | – | –
2 | O=C(O)CN1CCN(CC(=O)O)CCN(CC(=O)NCCC(=O)N[C@@H](CCCCNC(=O)c2ccc(CNC(=O)CCCc3ccc(I)cc3)cc2)C(=O)O)CCN(CC(=O)O)CC1.[177Lu] [[^177Lu]Lu-DOTA-ALB-3] | – | – | 99 | 97 | 89 | 39
3 | O=C(O)CN1CCN(CC(=O)O)CCN(CC(=O)NCCC(=O)N[C@@H](CCCCNC(=O)CCCc2ccc(I)cc2)C(=O)O)CCN(CC(=O)O)CC1.[177Lu] [[^177Lu]Lu-DOTA-ALB-1] | – | – | 99 | 96 | 92 | 51
4 | CN1c2c(nc(N)[nH]c2=O)NCC1CNc1ccc(C(=O)NC(CCC(=O)NC(CCCCNC(=O)CN2CCN(CC(=O)[O-])CCN(CC(=O)[O-])CCN(CC(=O)[O-])CC2)C(=O)NC(CCCCNC(=O)CCCc2ccc(I)cc2)C(=O)O)C(=O)O)cc1.[177Lu+3] (stereo not drawn) [[^177Lu]Lu-6S-RedFol-1] | 1.0 | 93 | – | – | – | –
5 | CN1c2c(nc(N)[nH]c2=O)NC[C@H]1CNc1ccc(C(=O)N[C@@H](CCC(=O)N[C@@H](CCCCNC(=O)CN2CCN(CC(=O)O)CCN(CC(=O)O)CCN(CC(=O)O)CC2)C(=O)N[C@@H](CCCCNC(=O)CCCc2ccc(I)cc2)C(=O)O)C(=O)O)cc1 [[^177Lu]Lu-6R-RedFol-1, metal not drawn] | 1.0 | 93 | – | – | – | –
6 | CN1c2c(nc(N)[nH]c2=O)NC[C@H]1CNc1ccc(C(=O)N[C@@H](CCC(=O)N[C@@H](CCCCNC(=O)CN2CCN(CC(=O)O)CCN(CC(=O)O)CCN(CC(=O)O)CC2)C(=O)N[C@@H](CCCCNC(=O)CCCCc2ccc(I)cc2)C(=O)O)C(=O)O)cc1 [[^177Lu]Lu-6R-RedFol-24, metal not drawn] | 0.2 | 73 | – | – | – | –
7 | CN1c2c(nc(N)[nH]c2=O)NCC1CNc1ccc(C(=O)NC(CCC(=O)NC(CCCCNC(=O)CN2CCN(CC(=O)[O-])CCN(CC(=O)[O-])CCN(CC(=O)[O-])CC2)C(=O)NC(CCCCNC(=O)c2ccc(CNC(=O)CCCCc3ccc(I)cc3)cc2)C(=O)O)C(=O)O)cc1.[177Lu+3] (stereo not drawn) [[^177Lu]Lu-6S-RedFol-25] | 0.7 | 92 | – | – | – | –
8 | CN1c2c(nc(N)[nH]c2=O)NC[C@H]1CNc1ccc(C(=O)N[C@@H](CCC(=O)N[C@@H](CCCCNC(=O)CN2CCN(CC(=O)O)CCN(CC(=O)O)CCN(CC(=O)O)CC2)C(=O)N[C@@H](CCCCNC(=O)c2ccc(CNC(=O)CCCCc3ccc(I)cc3)cc2)C(=O)O)C(=O)O)cc1 [[^177Lu]Lu-6R-RedFol-25, metal not drawn] | 1.4 | 94 | – | – | – | –
9 | O=C(O)CN1CCN(CC(=O)O)CCN(CC(=O)NCCC(=O)N[C@@H](CCCCNC(=O)CCCCc2ccc(I)cc2)C(=O)O)CCN(CC(=O)O)CC1.[177Lu] [[^177Lu]Lu-DOTA-ALB-24] | – | – | 99 | 95 | 88 | 39
10 | CN1c2c(nc(N)[nH]c2=O)NCC1CNc1ccc(C(=O)NC(CCC(=O)NC(CCCCNC(=O)CN2CCN(CC(=O)[O-])CCN(CC(=O)[O-])CCN(CC(=O)[O-])CC2)C(=O)NC(CCCCNC(=O)c2ccc(CNC(=O)CCCc3ccc(I)cc3)cc2)C(=O)O)C(=O)O)cc1.[177Lu+3] (stereo not drawn) [[^177Lu]Lu-6S-RedFol-3] | 3.5 | 97 | – | – | – | –
11 | O=C(O)CN1CCN(CC(=O)O)CCN(CC(=O)NCCC(=O)N[C@@H](CCCCNC(=O)c2ccc(CNC(=O)CCCCc3ccc(I)cc3)cc2)C(=O)O)CCN(CC(=O)O)CC1.[177Lu] [[^177Lu]Lu-DOTA-ALB-25] | – | – | 99 | 97 | 91 | 41
